# Laboratory results reported in ChEMBL document CHEMBL5696442, “Discovery of type II inhibitors of TGFβ-activated kinase 1 (TAK1) and mitogen-activated protein kinase kinase kinase kinase 2 (MAP4K2)” (J Med Chem, 2015).
# Calls of active or inactive are those of the source. The calls are words filed in the database; no cut-off is given here.
# Experiments:
# [1] = biological target: Casein kinase I isoform delta (Homo sapiens) (UniProt P48730); test: Inhibition of CK1delta Lys2 labeling site in human Huh-7 cell lysate at 1 uM by KiNativ Profiling analysis relative to control; format: subcellular
# Chain of Casein kinase I isoform delta (Homo sapiens) (P48730 whole entry, looked up, canonical isoform): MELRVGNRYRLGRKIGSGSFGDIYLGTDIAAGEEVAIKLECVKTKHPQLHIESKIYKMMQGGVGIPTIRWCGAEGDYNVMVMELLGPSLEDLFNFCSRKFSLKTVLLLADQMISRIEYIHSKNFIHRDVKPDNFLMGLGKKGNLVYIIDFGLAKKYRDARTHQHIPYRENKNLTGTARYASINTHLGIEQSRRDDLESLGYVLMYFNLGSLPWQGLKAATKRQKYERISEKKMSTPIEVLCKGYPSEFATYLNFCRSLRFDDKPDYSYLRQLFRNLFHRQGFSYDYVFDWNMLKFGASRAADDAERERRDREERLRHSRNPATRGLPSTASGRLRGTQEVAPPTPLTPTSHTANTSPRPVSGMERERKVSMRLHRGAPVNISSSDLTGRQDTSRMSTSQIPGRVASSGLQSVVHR
# [2] = biological target: T1, Phosphatidylinositol 5-phosphate 4-kinase type-2 beta (Homo sapiens) (UniProt P78356); test: Inhibition of PIP4K2B ATP labeling site harbouring AKDLPTFKDNDFLNEGQK in human Huh-7 cell lysate at 1 uM by KiNativ Profiling analysis relative to control; format: subcellular
# T1 sequence (whole entry): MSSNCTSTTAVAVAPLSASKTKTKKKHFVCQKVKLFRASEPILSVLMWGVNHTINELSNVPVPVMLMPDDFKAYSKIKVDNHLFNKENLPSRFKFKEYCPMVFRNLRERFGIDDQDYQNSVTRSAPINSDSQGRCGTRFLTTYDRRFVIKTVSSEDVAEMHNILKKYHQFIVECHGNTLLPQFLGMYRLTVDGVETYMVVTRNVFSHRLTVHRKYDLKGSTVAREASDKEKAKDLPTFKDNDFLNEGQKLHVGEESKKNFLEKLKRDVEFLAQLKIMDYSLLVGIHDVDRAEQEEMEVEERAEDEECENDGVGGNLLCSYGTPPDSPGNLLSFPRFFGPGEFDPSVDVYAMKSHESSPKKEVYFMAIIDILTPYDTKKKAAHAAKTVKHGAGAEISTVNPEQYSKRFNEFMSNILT
# [3] = biological target: Cyclin-dependent kinase 17 (Homo sapiens) (UniProt Q00537); test: Inhibition of PCTAIRE2 PCTAIRE3 Lys1 labeling site in human Huh-7 cell lysate at 1 uM by KiNativ Profiling analysis relative to control; format: subcellular
# Chain of Cyclin-dependent kinase 17 (Homo sapiens) (Q00537 whole entry, looked up): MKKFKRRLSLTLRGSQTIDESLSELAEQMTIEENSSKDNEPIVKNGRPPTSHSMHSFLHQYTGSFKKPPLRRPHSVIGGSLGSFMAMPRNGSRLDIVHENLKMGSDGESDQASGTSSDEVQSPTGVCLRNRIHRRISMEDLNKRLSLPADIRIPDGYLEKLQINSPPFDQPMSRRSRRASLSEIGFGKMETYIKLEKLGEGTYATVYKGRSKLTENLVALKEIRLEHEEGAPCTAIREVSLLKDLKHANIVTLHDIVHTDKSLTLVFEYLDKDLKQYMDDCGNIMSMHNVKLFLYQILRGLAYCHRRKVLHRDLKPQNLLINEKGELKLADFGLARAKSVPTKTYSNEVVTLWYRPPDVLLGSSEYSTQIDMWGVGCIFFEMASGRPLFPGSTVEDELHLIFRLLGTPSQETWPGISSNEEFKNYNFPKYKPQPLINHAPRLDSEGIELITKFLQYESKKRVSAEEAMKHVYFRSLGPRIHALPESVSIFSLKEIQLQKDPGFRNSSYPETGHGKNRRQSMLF
# [4] = biological target: Cyclin-dependent kinase 17 (Homo sapiens) (UniProt Q00537); test: Inhibition of PCTAIRE2 Lys2 labeling site in human Huh-7 cell lysate at 1 uM by KiNativ Profiling analysis relative to control; format: subcellular
# [5] = biological target: Tyrosine-protein kinase Fer (Homo sapiens, UniProt P16591); test: Inhibition of FER Lys1 labeling site in human Huh-7 cells at 1 uM by KiNativ Profiling analysis relative to control; format: cell-based
# [6] = biological target: Ephrin type-A receptor 3 (Homo sapiens) (UniProt P29320); test: Inhibition of EPHA3 (unknown origin) at 10 uM by Ambit Kinomescan binding assay relative to control
# [7] = biological target: Focal adhesion kinase 1 (Homo sapiens) (UniProt Q05397); test: Inhibition of FAK (unknown origin) at 10 uM by Ambit Kinomescan binding assay relative to control
# Chain of Focal adhesion kinase 1 (Homo sapiens) (Q05397 2-1052 limits assumed): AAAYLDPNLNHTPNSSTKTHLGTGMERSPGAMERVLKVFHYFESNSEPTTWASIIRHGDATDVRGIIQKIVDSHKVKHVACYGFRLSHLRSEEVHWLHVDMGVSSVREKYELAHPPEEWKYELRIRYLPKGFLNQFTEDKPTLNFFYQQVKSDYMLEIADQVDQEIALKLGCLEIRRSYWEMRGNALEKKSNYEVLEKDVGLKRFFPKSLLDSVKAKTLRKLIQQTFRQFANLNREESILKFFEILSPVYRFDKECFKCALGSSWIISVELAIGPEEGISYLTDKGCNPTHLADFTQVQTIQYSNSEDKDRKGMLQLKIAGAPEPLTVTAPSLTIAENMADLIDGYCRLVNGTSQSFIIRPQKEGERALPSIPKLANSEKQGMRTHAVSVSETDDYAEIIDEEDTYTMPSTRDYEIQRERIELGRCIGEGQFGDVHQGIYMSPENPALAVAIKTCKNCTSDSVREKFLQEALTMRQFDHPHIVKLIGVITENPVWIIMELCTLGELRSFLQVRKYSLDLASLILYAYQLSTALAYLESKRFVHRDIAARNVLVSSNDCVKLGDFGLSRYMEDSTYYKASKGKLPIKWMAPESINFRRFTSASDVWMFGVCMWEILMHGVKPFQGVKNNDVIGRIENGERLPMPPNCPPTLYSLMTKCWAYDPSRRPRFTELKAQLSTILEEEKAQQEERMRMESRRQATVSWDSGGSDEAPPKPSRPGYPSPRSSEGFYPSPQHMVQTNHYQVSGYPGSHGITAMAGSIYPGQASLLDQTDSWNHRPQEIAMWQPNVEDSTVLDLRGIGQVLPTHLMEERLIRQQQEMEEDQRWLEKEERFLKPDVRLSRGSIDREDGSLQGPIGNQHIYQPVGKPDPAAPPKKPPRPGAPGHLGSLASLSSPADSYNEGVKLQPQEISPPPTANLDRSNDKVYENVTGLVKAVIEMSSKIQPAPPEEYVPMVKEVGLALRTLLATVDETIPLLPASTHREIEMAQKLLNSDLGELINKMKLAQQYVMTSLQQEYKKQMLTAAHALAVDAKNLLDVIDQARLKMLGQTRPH
# [8] = biological target: Mitogen-activated protein kinase kinase kinase kinase 4 (Homo sapiens, UniProt O95819); test: Inhibition of ZC1 Lys2 labeling site in human A-375 cells at 5 uM by KiNativ Profiling analysis relative to control; format: cell-based
# Chain of Mitogen-activated protein kinase kinase kinase kinase 4 (O95819 2-1239 limits assumed): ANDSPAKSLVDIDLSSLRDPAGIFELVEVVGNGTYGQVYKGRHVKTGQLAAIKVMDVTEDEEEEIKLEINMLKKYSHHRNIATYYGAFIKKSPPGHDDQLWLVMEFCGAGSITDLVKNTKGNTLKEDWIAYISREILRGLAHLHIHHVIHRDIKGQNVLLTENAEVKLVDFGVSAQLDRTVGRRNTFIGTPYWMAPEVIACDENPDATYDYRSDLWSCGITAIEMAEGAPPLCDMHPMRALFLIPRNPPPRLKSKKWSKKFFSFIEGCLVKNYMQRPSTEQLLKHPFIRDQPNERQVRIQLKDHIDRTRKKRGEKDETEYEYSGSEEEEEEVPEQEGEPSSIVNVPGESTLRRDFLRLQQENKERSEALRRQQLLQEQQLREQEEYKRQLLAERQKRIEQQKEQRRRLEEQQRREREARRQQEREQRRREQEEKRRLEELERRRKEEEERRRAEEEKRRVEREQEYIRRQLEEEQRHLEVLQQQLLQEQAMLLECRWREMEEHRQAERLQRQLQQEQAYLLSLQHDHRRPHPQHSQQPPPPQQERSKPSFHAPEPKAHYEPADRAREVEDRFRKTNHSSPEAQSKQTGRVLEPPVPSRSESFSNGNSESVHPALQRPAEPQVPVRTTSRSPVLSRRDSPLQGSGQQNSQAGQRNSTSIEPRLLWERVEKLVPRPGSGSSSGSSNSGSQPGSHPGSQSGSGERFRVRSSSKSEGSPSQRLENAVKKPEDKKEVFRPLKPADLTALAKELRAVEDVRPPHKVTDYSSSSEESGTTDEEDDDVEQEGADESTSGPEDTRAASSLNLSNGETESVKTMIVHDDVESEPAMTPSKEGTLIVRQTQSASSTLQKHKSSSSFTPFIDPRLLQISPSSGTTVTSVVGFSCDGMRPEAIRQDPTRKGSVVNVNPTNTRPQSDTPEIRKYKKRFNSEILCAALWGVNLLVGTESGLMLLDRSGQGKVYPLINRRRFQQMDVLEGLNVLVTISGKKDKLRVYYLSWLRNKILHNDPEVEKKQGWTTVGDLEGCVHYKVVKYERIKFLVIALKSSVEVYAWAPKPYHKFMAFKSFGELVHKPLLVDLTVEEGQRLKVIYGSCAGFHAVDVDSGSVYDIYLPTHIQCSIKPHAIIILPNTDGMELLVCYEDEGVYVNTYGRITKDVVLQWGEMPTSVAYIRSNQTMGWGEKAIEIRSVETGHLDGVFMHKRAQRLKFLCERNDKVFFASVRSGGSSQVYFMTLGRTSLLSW
# [9] = biological target: Tyrosine-protein kinase Srms (Homo sapiens) (UniProt Q9H3Y6); test: Inhibition of SRMS (unknown origin) at 10 uM by Ambit Kinomescan binding assay relative to control; values are per cent of control
# Chain of Tyrosine-protein kinase Srms (Homo sapiens) (Q9H3Y6 whole entry): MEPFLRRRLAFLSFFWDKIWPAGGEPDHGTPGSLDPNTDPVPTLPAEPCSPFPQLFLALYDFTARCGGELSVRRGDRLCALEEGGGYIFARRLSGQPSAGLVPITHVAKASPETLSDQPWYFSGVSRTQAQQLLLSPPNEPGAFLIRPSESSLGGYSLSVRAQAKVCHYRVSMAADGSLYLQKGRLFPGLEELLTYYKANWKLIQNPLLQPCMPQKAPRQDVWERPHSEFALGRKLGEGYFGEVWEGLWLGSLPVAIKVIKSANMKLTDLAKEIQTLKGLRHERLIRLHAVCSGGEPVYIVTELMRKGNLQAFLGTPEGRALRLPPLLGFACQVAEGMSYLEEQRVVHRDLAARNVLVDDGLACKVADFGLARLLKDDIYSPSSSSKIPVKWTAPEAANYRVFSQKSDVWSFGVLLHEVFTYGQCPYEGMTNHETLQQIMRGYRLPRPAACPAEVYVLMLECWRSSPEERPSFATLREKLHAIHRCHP
# [10] = biological target: Casein kinase II subunit alpha' (Homo sapiens) (UniProt P19784); test: Inhibition of CSNK2A2 (unknown origin) at 10 uM by Ambit Kinomescan binding assay
# Chain of Casein kinase II subunit alpha' (Homo sapiens) (P19784 whole entry, looked up): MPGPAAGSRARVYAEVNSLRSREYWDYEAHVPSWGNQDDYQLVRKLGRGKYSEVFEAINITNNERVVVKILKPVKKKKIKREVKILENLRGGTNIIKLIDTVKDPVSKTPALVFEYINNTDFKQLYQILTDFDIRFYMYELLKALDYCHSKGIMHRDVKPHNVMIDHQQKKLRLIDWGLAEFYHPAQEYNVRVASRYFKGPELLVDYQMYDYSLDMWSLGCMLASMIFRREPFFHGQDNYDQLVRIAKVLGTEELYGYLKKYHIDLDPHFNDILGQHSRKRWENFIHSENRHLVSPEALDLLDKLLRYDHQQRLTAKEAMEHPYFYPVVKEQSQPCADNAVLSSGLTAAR
# [11] = biological target: Serine/threonine-protein kinase ATR (Homo sapiens) (UniProt Q13535); test: Inhibition of ATR ATP labeling site in human A-375 cells at 0.5 uM by KiNativ Profiling analysis relative to control; format: cell-based
# [12] = biological target: Phosphatidylinositol 4-kinase beta (Homo sapiens) (UniProt Q9UBF8); test: Inhibition of PI4KB ATP labeling site harbouring VPHTQAVVLNSKDKAPYLIYVEVLECENFDTTSVPAR in human A-375 cells at 0.5 uM by KiNativ Profiling analysis relative to control; format: cell-based
# [13] = biological target: Tyrosine-protein kinase SYK (Homo sapiens) (UniProt P43405); test: Inhibition of SYK (unknown origin) at 1 uM by Ambit Kinomescan binding assay relative to control
# [14] = biological target: Serine/threonine-protein kinase 16 (Homo sapiens) (UniProt O75716); test: Inhibition of MPSK1 Lys2 labeling site in human A-375 cells at 5 uM by KiNativ Profiling analysis relative to control; format: cell-based
# Chain of Serine/threonine-protein kinase 16 (Homo sapiens) (O75716 whole entry, canonical isoform): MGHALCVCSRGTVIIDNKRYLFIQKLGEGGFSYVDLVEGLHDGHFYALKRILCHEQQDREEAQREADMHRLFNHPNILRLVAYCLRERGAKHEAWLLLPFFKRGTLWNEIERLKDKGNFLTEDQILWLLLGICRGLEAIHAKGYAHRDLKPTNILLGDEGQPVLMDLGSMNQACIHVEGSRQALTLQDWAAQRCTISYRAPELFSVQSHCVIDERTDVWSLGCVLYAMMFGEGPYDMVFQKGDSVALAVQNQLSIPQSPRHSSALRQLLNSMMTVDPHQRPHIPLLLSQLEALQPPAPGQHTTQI
# [15] = biological target: Casein kinase I isoform gamma-3 (Homo sapiens) (UniProt Q9Y6M4); test: Inhibition of CSNK1G3 (unknown origin) at 1 uM by Ambit Kinomescan binding assay relative to control
# Chain of Casein kinase I isoform gamma-3 (Homo sapiens) (Q9Y6M4 whole entry, looked up, canonical isoform): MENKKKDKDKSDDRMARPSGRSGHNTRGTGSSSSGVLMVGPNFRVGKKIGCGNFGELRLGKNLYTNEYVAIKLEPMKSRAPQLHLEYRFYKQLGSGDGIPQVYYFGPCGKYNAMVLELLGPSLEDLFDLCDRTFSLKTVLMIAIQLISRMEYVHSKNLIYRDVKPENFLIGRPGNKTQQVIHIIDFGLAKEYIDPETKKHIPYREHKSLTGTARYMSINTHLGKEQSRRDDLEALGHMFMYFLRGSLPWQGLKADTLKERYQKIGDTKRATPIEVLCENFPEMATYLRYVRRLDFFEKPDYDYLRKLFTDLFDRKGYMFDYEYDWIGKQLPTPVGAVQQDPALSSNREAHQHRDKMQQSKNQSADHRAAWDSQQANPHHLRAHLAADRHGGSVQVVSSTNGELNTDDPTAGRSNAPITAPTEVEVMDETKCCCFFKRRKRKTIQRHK
smiles,measurement,setting,value
CNc1cc(Oc2cc(C(=O)Nc3cc(N4CCN(C)CC4)cc(C(F)(F)F)c3)ccc2C)ncn1,inhibition,[1],0.6%
same,inhibition,[2],-5.5%
same,inhibition,[3],-9.5%
same,inhibition,[4],-2.1%
same,inhibition,[5],-7.1%
CCN1CCN(Cc2ccc(NC(=O)c3ccc(C)c(Oc4ccnc5[nH]ccc45)c3)cc2C(F)(F)F)CC1,inhibition,[6],3.4%
same,inhibition,[7],23%
same,inhibition,[8],92.7%
same,residual activity,[9],4.6%
same,inhibition,[10],inactive
same,inhibition,[11],5.1%
CCN1CCN(Cc2ccc(NC(=O)c3ccc(C)c(/C=C/c4cnc5[nH]ccc5c4OC)c3)cc2C(F)(F)F)CC1,inhibition,[12],18.3%
same,inhibition,[13],18%
same,inhibition,[14],41%
same,inhibition,[15],71%
